Assay: excess molar enthalpy (molar enthalpy of mixing); xn = mol fraction of the nth substance listed
Details: 313.15 K, 100 kPa

CCC(=O)O + C1CCCCC1
Details | excess molar enthalpy [kcal/mol]
x1 = 0.0571 | 0.0337
x1 = 0.108 | 0.0657
x1 = 0.1537 | 0.0913
x1 = 0.195 | 0.112
x1 = 0.3264 | 0.154
x1 = 0.4209 | 0.168
x1 = 0.4921 | 0.171
x1 = 0.5924 | 0.167
x1 = 0.6856 | 0.147
x1 = 0.744 | 0.129
x1 = 0.8134 | 0.0982
x1 = 0.8971 | 0.0507
x1 = 0.9208 | 0.0359
x1 = 0.9458 | 0.0196

CCC(=O)O + CCCCCCCC
Details | excess molar enthalpy [kcal/mol]
x1 = 0.1539 | 0.065
x1 = 0.2144 | 0.0856
x1 = 0.2668 | 0.104
x1 = 0.3531 | 0.126
x1 = 0.4212 | 0.138
x1 = 0.5219 | 0.146
x1 = 0.5928 | 0.146
x1 = 0.7661 | 0.11
x1 = 0.8137 | 0.0932
x1 = 0.8676 | 0.0715
x1 = 0.8973 | 0.0566
x1 = 0.9291 | 0.0406

CCC(=O)O + Cc1cc(C)cc(C)c1
Details | excess molar enthalpy [kcal/mol]
x1 = 0.0444 | 0.0055
x1 = 0.0548 | 0.00574
x1 = 0.0718 | 0.00598
x1 = 0.134 | 0.00335
x1 = 0.1884 | -0.000239
x1 = 0.2364 | -0.00287
x1 = 0.3171 | -0.00526
x1 = 0.3824 | -0.00717
x1 = 0.4815 | -0.00813
x1 = 0.5532 | -0.0086
x1 = 0.65 | -0.00813
x1 = 0.7359 | -0.00645
x1 = 0.7879 | -0.00574
x1 = 0.8479 | -0.0043
x1 = 0.9176 | -0.00287
x1 = 0.9571 | -0.00191

CCC(=O)O + C1CCOCC1
Details | excess molar enthalpy [kcal/mol]
x1 = 0.0528 | -0.0263
x1 = 0.1003 | -0.0504
x1 = 0.1433 | -0.0679
x1 = 0.1823 | -0.0813
x1 = 0.3085 | -0.112
x1 = 0.4009 | -0.121
x1 = 0.6675 | -0.101
x1 = 0.8006 | -0.0648
x1 = 0.8893 | -0.0335
x1 = 0.9146 | -0.0229
x1 = 0.9414 | -0.0127
x1 = 0.9698 | -0.00598

CCC(=O)O + C1COCCO1
Details | excess molar enthalpy [kcal/mol]
x1 = 0.087 | -0.0294
x1 = 0.125 | -0.0351
x1 = 0.16 | -0.039
x1 = 0.2222 | -0.0406
x1 = 0.2759 | -0.0392
x1 = 0.3636 | -0.0318
x1 = 0.4325 | -0.0239
x1 = 0.5334 | -0.0103
x1 = 0.6957 | 0.0131
x1 = 0.7742 | 0.0206
x1 = 0.8728 | 0.0203
x1 = 0.9014 | 0.0174
x1 = 0.9648 | 0.00813

From a compilation of properties of binary mixtures (doi:10.1021/je950194b)
